“And” between values parts separate entries of the source, which are not always exact repeats. Identical values can stand only once.

Assay [1] has as its system RDSVS-TCC1 cell line. The experiment in a line: Caspase 3/7 activation flow cytometry assay. It counts as cell-based, canine. Particulars: RDSVS-TCC1, 24 h. The protocol:
(§1) Subsequently, to assess caspases 3/7 activation, the cells were incubated with medium alone or with increasing concentrations of compounds (Degrasyn, PR-619) in conditions similar to the previous test. Following cell collection, the cells were twice PBS-washed and stained in accordance with the manufacturer’s instructions. For active caspase 3/7 detection, CellEventCaspase-3/7 Green Detection Reagent Solution was added to the samples. The cells were then suspended 1 more time in the wash buffer after being washed twice. For flow cytometric analysis, a flow cytometers (FACS Calibur, Becton Dickinson, Biosciences, San Jose, CA, USA; CytoFlex, Beckman Coulter, CA, USA) were used, and CellQuest 3.lf (Becton Dickinson, San Jose, CA, USA) and CytExpert 2.4 (Beckman Coulter, CA, USA) software were used for data analysis. The presented results were obtained from three independent experiments.

The subject of assay [2] is K9TCC-PU-NK cell line. The experiment in a line: Caspase 3/7 activation flow cytometry assay. As to conditions: 24 h. It counts as cell-based, canine. The protocol:
as §1

In assay [3] the test system is RDSVS-TCC1 cell line. Put plainly: MTT cell proliferation assay. It counts as cell-based, canine. As to conditions: highest concentration used (20 μM). The protocol:
(§2) Cell proliferation was determined using the 3-(4,5-dimethylthiazol-2-yl)-2,5-diphenyltetrazolium bromide (MTT) assay (Sigma-Aldrich, Steinheim, Germany). Cells were plated at a density of 1 × 10^5 cells per mL in 96-well plates (Thermo Fisher Scientific, Roskilde, Denmark) and allowed to attach overnight. Subsequently, Degrasyn and PR-619 were added in increasing concentrations (0.6, 1.25, 2.5, 5, 10, and 20 μM). After incubation for 24, 48, and 72 h with either the compounds or in the medium alone, 20 μL of MTT solution (5 mg/mL) was added to each well. After an additional 4 h, 80 μL of the lysis buffer (225 mL DMF, 67.5 g SDS, and 275 mL distilled water) was added to each well. After dissolving the content, the absorbance was measured at a […] of 570 nm using a spectrophotometric microplate reader Spark (Tecan). The values were obtained from 3 independent experiments (different plates, different days). Based on the results, the concentration that inhibited 50% of the cell proliferation (IC50) was calculated for all incubation intervals.

The subject of assay [4] is K9TCC-PU-NK cell line. The experiment in a line: MTT cell proliferation assay. The assay is classed as cell-based, canine. Particulars: highest concentration used (20 μM). The protocol: as §2
Assay [5] has as its system γH2AX in canine BC cell lines (K9TCC-PU-NK, RDSVS-TCC1). Put plainly: Western blot for γH2AX (DNA damage). It counts as cell-based. Particulars: 24 h. The protocol: (§3) Western blot was performed to assess the expression of USP5, USP9X, and USP14 in analyzed cell lines. After 24 h of incubation with increasing concentrations of Degrasyn and PR-619, the expression of proteins involved in apoptosis (Bcl-2 and Bcl-xl) and a marker of DNA damage (γH2A.X) was also evaluated. Briefly, cells were rinsed with cold phosphate-buffered saline (PBS), suspended in lysis buffer (50 mM Tris-HCl pH 7.5, 100 mM NaCl, 1% NP-40, protease inhibitors set), and incubated for 20 min on ice. Subsequently, after centrifuging at 10,000 rpm at 4 °C for 12 min, sodium dodecyl sulfate (SDS) sample buffer was added to […]. After boiling for 5 min at 95 °C, the samples were subjected to SDS-polyacrylamide gel electrophoresis on 8–15% gel. For USP5, USP9X, USP14, γH2A.X, Bcl-2, and Bcl-xl expression analysis, transfers onto nitrocellulose membranes were performed using a Semidry Transfer Cell or wet transfer method (Bio-Rad, Hercules, CA, USA). After transfer, the membranes were blocked with 1% casein in TBS (or 3% BSA for γH2Ax) at room temperature for 1 h. […]

The subject of another assay is γH2AX in T24 cell line. Put plainly: Western blot for γH2AX (DNA damage). The assay is classed as cell-based, human. Particulars: T24, 24 h. The protocol: as §3
Assay [6] has as its system Bcl-2 in all BC cell lines (T24, K9TCC-PU-NK, RDSVS-TCC-1). Put plainly: Western blot for Bcl-2 expression. The assay is classed as cell-based, human and canine. As to conditions: 24 h. The protocol: as §3
The subject of assay [7] is USP5 protein in T24 cells. The experiment in a line: Western blot for USP5 expression. As to conditions: T24, 24 h; Degrasyn 0.6, 1.25, 2.5 μM; PR-619 1.25, 2.5, 5 μM. It counts as cell-based, human. The protocol:
as §3

Assay [8] concerns RDSVS-TCC1 cell line. The experiment in a line: Annexin V-FITC/PI apoptosis flow cytometry. It counts as cell-based, canine. Particulars: RDSVS-TCC1, 24 h; for pro-apoptotic effect (number of apoptotic cells vs control): increasing concentrations up to approximately IC50. The protocol: (§4) To assess the level of apoptosis induced by Degrasyn and PR-619, cells were seeded at a density of 1 × 10^5/mL in 96-well plates (TPP, Trasadingen, Switzerland) and incubated for 24 h with increasing concentrations of compounds. Cells were then collected, suspended in a binding buffer, and stained with Annexin V-FITC for 10 min at room temperature. Subsequently, PI was added, and flow cytometric analysis was immediately performed using a flow cytometers (FACS Calibur, Becton Dickinson, Biosciences, San Jose, CA, USA; CytoFlex, Beckman Coulter, CA, USA). CellQuest 3.lf. (Becton Dickinson, San Jose, CA, USA) and CytExpert 2.4 (Beckman Coulter, CA, USA) software were used for data analysis.

For assay [9], the system named is K9TCC-PU-NK cell line. The experiment in a line: Annexin V-FITC/PI apoptosis flow cytometry. It counts as cell-based, canine. As to conditions: 24 h. The protocol: as §4
The test system of assay [10] is SV-HUC-1 cell line. Put plainly: Caspase 3/7 activation flow cytometry assay. The assay is classed as cell-based, human. As to conditions: SV-HUC-1, 24 h. The protocol:
as §1

The subject of a further assay is T24 cell line. Put plainly: Caspase 3/7 activation flow cytometry assay. Particulars: T24, 24 h. The assay is classed as cell-based, human. The protocol:
as §1

For assay [11], the system named is SV-HUC-1 cell line. Put plainly: MTT cell proliferation assay. It counts as cell-based, human. As to conditions: for cells killed at the highest concentration: SV-HUC-1, MTT, highest concentration used (20 μM). The protocol:
as §2

[12] abbreviates: 5 μM (highest concentration of Degrasyn).
The mark [13] stands for this setting: 10 μM (highest concentration of PR-619).
Where [14] appears, read: highest concentrations of the drug.
Setting [15] is: 2.5 μM (highest concentration of Degrasyn).
Setting [16] is: 5 μM (highest concentration of PR-619).

On to `N#CSc1cc(SC#N)c(N)nc1N` [PR-619], for which the “percentage of cells with active caspase 3/7” value (from here on “percentage of cells”) in the assay with RDSVS-TCC1 cell line [1] (2.5 μM) was 6.1%; with RDSVS-TCC1 cell line [1] (setting [12]), 12.9%; in the assay on RDSVS-TCC1 cell line [1] (setting [13]), 16.2 ± 7.4% and 16.2%; with K9TCC-PU-NK cell line [2] (2.5 μM), 6.4%; in the assay on K9TCC-PU-NK cell line [2] (setting [12]), 9.9%; in the assay on K9TCC-PU-NK cell line [2] (setting [13]) it was 13.3 ± 3.3% and 13.2%. For the same molecule, the “percentage of cells” value was 8.9% with SV-HUC-1 cell line [10] (1.25 μM); 10.6% with SV-HUC-1 cell line [10] (setting [15]); 19.6 ± 1.8% and 19.6% in the assay with SV-HUC-1 cell line [10] (setting [16]); 10.2% with T24 cell line (1.25 μM); 13.4% in the assay on T24 cell line (setting [15]); 16.1 ± 4.9% and 16.1% in the assay on T24 cell line (setting [16]). For the same molecule, the “cells killed at the highest concentration” value in the assay with RDSVS-TCC1 cell line [3], in the assay on K9TCC-PU-NK cell line [4] and with SV-HUC-1 cell line [11] was approximately 100% each time. Also, the “amount of γH2AX” value (in assay [5] (setting [14]); with γH2AX in T24 cell line (setting [14])) was “only a slight visible increase” in each case. Moreover, in assay [6] (10 μM), the “expression of Bcl-2 protein” value is given as “slightly decreased”. In assay [7], the USP5 protein expression entry is “no visible effect”. In addition, the “percentage of early and late apoptotic cells” value stood at 17.2 ± 6.5% in the assay on RDSVS-TCC1 cell line [8] (5 μM) and 8.4 ± 0.8% in the assay on K9TCC-PU-NK cell line [9] (5 μM). Also, the “pro-apoptotic effect (number of apoptotic cells vs control)” value in the assay with RDSVS-TCC1 cell line [8] and in the assay with K9TCC-PU-NK cell line [9] (increasing concentrations up to approximately IC50) was “did not show a significant pro-apoptotic effect” in each case.
Turning to `CCC[C@H](NC(=O)/C(C#N)=C/c1cccc(Br)n1)c1ccccc1` [Degrasyn], the “percentage of cells” value was 5.9% in the assay on RDSVS-TCC1 cell line [1] (1.25 μM); 11.7% in the assay on RDSVS-TCC1 cell line [1] (2.5 μM); 22.5 ± 4.3% and 22.5% in the assay on RDSVS-TCC1 cell line [1] (setting [12]); 5.4% in the assay on K9TCC-PU-NK cell line [2] (1.25 μM); 7.1% in the assay on K9TCC-PU-NK cell line [2] (2.5 μM); 11.9 ± 1.8% and 11.9% in the assay on K9TCC-PU-NK cell line [2] (setting [12]). For the same molecule, the “percentage of cells” value in the assay with SV-HUC-1 cell line [10] (0.6 μM) is 5.8%; in the assay on SV-HUC-1 cell line [10] (1.25 μM), 7.6%; with SV-HUC-1 cell line [10] (setting [15]) it was 22.4 ± 5.4% and 22.4%; in the assay with T24 cell line (0.6 μM) it was 12.5%; with T24 cell line (1.25 μM) it was 16.1%; in the assay on T24 cell line (setting [15]) it was 36.6 ± 0.7% and 36.6%. Also, the “cells killed at the highest concentration” value in the assay with RDSVS-TCC1 cell line [3], in the assay with K9TCC-PU-NK cell line [4] and in the assay on SV-HUC-1 cell line [11] was approximately 100% throughout. For the same molecule, the “expression of γH2AX” value is “high expression” in [5] (only 5 µM); “high expression” in the assay with γH2AX in T24 cell line (2.5 µM and 5 µM). In addition, in assay [6] (5 μM), the “expression of Bcl-2 protein” value is “slightly decreased”. Also, the USP5 protein expression result in assay [7] is recorded as “clearly decreased”. The “percentage of early and late apoptotic cells” value in the assay on RDSVS-TCC1 cell line [8] (2.5 μM) was 42.4 ± 2.3%; in the assay with K9TCC-PU-NK cell line [9] (2.5 μM), 11.8 ± 3.4%. Besides, the “pro-apoptotic effect (number of apoptotic cells vs control)” value in the assay with RDSVS-TCC1 cell line [8] is “significant increase”. Moreover, the IC50 in the assay with SV-HUC-1 cell line [11] (SV-HUC-1, 24 h exposure, MTT, read-out: IC50 (concentration that inhibited 50% of the cell proliferation)) is 2.33 µM.

The values above are taken from PMC10045593, “Ubiquitin-Specific Proteases as Potential Therapeutic Targets in Bladder Cancer—In Vitro Evaluation of Degrasyn and PR-619 Activity Using Human and Canine Models” (Biomedicines, 2023).
